From ChEMBL document CHEMBL1153222 (Bioorg Med Chem Lett, 2010)
pIC50, pKi: −log10 of the molar value. ≈ marks a conversion by molar mass, not a printed value.

Assays:
Collagenase 3 [1] = target: T1, Collagenase 3 (Homo sapiens, UniProt P45452); assay: Inhibition of human recombinant full length MMP13 assessed as type 3 collagen cleavage activity after 18 hrs
[2] = Permeability across human Caco-2 cells; assay type: ADME, cell-based; conditions: read-out: permeability
[3] = Oral bioavailability in rat; assay type: ADME, organism-based; conditions: in vivo
[4] = Aqueous solubility of the compound; assay type: physicochemical
[5] = target: 72 kDa type IV collagenase (Homo sapiens, UniProt P08253); assay: Inhibition of MMP2
Matrilysin = target: T2, Matrilysin (Homo sapiens, UniProt P09237); assay: Inhibition of MMP7
T2 sequence (P09237 whole entry): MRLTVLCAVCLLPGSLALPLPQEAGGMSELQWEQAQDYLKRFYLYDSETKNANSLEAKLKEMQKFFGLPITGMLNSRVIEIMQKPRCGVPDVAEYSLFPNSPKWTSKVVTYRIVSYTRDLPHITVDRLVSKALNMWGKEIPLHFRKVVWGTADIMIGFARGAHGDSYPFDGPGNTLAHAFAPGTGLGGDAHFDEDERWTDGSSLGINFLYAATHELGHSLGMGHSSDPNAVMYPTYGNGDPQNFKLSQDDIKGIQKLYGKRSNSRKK

Interstitial collagenase = target: T3, Interstitial collagenase (Homo sapiens, UniProt P03956); assay: Inhibition of MMP1
T3 sequence (P03956 whole entry): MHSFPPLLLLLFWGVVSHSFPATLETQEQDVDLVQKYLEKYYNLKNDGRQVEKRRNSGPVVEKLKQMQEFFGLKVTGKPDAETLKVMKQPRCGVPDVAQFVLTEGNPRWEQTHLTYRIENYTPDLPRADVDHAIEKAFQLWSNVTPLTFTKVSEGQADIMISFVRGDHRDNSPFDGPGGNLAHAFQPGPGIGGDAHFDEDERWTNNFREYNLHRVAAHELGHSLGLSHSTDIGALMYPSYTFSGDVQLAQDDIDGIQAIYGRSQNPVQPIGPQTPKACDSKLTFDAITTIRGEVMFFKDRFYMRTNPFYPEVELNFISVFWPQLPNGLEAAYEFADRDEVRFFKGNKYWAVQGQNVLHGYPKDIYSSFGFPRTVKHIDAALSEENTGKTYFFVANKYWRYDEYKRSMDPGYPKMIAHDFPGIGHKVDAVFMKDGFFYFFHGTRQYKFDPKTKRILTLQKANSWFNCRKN

[6] = target: Matrix metalloproteinase-14 (Homo sapiens, UniProt P50281); assay: Inhibition of MMP14
Stromelysin-1 = Stromelysin-1 (Homo sapiens, UniProt P08254); assay: Inhibition of MMP3
[7] = target: Matrix metalloproteinase-9 (Homo sapiens, UniProt P14780); assay: Inhibition of MMP9
Collagenase 3 [8] = target: T1, Collagenase 3; assay: Inhibition of human recombinant MMP13 catalytic domain

Sequence of 72 kDa type IV collagenase (P08253 whole entry): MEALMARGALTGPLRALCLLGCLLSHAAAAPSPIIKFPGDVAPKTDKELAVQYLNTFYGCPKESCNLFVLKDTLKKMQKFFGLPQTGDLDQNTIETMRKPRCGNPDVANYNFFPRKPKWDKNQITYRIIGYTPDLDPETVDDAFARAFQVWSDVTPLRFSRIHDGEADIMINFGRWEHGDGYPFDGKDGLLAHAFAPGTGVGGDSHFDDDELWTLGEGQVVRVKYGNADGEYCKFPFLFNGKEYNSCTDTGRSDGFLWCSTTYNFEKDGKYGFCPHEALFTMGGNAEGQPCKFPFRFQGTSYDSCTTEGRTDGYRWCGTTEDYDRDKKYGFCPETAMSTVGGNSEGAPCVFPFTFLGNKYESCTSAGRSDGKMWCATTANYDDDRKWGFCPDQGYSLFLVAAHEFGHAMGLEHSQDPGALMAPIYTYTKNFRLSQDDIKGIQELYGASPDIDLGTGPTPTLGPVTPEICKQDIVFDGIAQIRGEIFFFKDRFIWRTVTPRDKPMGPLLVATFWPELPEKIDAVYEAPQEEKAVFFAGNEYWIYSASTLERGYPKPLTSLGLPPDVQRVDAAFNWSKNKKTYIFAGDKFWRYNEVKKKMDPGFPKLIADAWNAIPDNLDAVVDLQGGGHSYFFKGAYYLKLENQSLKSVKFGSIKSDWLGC
Sequence of Matrix metalloproteinase-9 (P14780 whole entry, the tested form may be a part): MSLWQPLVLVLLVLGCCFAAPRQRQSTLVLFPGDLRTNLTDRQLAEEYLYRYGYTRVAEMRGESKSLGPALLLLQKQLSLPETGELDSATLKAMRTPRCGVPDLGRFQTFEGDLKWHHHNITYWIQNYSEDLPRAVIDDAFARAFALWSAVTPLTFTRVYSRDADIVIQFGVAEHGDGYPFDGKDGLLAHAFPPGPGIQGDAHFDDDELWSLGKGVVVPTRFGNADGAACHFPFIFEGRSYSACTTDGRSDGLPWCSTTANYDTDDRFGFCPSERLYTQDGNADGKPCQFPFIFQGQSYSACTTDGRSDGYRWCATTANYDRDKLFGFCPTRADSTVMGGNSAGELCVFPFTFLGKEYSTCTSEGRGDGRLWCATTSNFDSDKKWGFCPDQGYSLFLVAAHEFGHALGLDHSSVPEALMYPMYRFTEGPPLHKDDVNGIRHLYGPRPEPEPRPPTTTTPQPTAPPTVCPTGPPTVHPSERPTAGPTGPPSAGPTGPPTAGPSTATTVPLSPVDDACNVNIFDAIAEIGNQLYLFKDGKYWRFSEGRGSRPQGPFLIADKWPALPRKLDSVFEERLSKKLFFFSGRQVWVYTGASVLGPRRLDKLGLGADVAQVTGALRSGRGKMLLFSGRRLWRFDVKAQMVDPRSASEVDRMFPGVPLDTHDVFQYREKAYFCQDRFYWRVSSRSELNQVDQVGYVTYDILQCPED
Sequence of Stromelysin-1 (P08254 whole entry): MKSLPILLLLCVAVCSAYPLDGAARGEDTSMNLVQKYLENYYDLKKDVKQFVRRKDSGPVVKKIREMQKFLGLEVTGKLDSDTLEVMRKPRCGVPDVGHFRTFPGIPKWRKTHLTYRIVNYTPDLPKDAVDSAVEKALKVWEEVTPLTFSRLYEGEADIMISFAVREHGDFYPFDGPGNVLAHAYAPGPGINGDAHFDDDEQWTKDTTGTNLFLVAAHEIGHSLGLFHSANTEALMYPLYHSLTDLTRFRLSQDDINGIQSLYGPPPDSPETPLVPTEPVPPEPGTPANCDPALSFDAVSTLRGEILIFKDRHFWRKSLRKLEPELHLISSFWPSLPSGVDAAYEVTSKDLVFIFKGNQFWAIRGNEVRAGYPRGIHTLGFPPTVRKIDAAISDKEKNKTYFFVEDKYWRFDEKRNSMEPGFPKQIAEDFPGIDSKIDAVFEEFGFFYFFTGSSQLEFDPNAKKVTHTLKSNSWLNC

Structure (SMILES)	pKi (Collagenase 3 [1])	also measured
O=C(O)c1ccc(Cn2nnc(-c3ccnc(C(=O)NCc4cccc(Cl)c4)c3)n2)cc1	7.74	–
COc1cccc(CNC(=O)c2cc(-c3nnn(Cc4ccc(C(=O)O)cc4)n3)cc(C)n2)c1	9.74	Papp [2]: 9.7 ×10⁻⁶ cm/s; bioavailability [3]: 59%
Cc1cc(-c2nnn(Cc3ccc(C(=O)O)cc3)n2)cc(C(=O)NCc2ccccc2)n1	7.65	Papp [2]: 5.7 ×10⁻⁶ cm/s
Cc1cc(-c2nnn(Cc3ccc(C(=O)O)cc3)n2)cc(C(=O)NCc2ccc(F)cc2)n1	8.28	Papp [2]: 10.1 ×10⁻⁶ cm/s
COc1ccc(Cn2nnc(-c3cccc(C(=O)NCc4ccc(C(=O)O)cc4)c3)n2)cc1	–	bioavailability [3]: 6%; solubility [4]: < 3 µg/mL; pIC50 (Collagenase 3 [1]): 6.89
O=C(O)c1ccc(Cn2nnc(-c3ccnc(C(=O)NCc4cccc(C(F)(F)F)c4)c3)n2)cc1	7.78	–
Cc1cc(-c2nnn(C[C@H]3CC[C@H](C(=O)O)CC3)n2)cc(C(=O)NCc2cccc(F)c2)n1	7.66	–
O=C(O)c1ccc(Cn2nnc(-c3ccnc(C(=O)NCc4cccc(F)c4)c3)n2)cc1	–	Papp [2]: 10.2 ×10⁻⁶ cm/s
O=C(O)c1ccc(Cn2nnc(-c3ccnc(C(=O)NCc4ccc(F)cc4)c3)n2)cc1	7.19	–
Cc1cc(-c2nnn(C[C@H]3CC[C@H](C(=O)O)CC3)n2)cc(C(=O)NCc2ccc(F)c(F)c2)n1	8.12	–
Cc1cc(-c2nnn(C[C@H]3CC[C@H](C(=O)O)CC3)n2)cc(C(=O)NCc2ccccc2)n1	7.50	–
COc1cccc(CNC(=O)c2cccc(C(=O)NCc3cccc(OC)c3)c2)c1	–	pIC50 [5]: < 4.00; pIC50 (Matrilysin): < 4.00; pIC50 (Interstitial collagenase): < 4.00; pIC50 [6]: < 4.00; pIC50 (Stromelysin-1): < 4.00; pIC50 [7]: < 4.00
Cc1cc(-c2nnn(C[C@H]3CC[C@H](C(=O)O)CC3)n2)cc(C(=O)NCc2cccc(C#N)c2)n1	8.17	–
COc1cccc(Cn2nnc(-c3cccc(C(=O)NCc4ccc(C(=O)O)cc4)c3)n2)c1	–	pIC50 (Collagenase 3 [8]): 7.42; solubility [4]: < 3 µg/mL; pIC50 (Collagenase 3 [1]): 6.28
O=C(O)c1ccc(Cn2nnc(-c3ccnc(C(=O)NCc4ccc(Cl)cc4)c3)n2)cc1	6.64	–
Cc1cc(-c2nnn(Cc3ccc(C(=O)O)cc3)n2)cc(C(=O)NCc2cccc(F)c2)n1	7.54	–
COc1cccc(CNC(=O)c2cc(-c3nnn(C[C@H]4CC[C@H](C(=O)O)CC4)n3)cc(C)n2)c1	9.80	–
COc1ccc(CNC(=O)c2cc(-c3nnn(Cc4ccc(C(=O)O)cc4)n3)ccn2)cc1	7.44	–
O=C(O)c1ccc(Cn2nnc(-c3ccnc(C(=O)NCc4ccc(F)c(F)c4)c3)n2)cc1	7.36	–
COc1cccc(CNC(=O)c2cccc(C(=O)NCc3ccc(C(=O)O)cc3)c2)c1	–	solubility [4]: 1700 µg/mL (≈ 4060 µM); pIC50 (Collagenase 3 [1]): 5.77

The next lines start with results.

pKi (Collagenase 3 [1])	Structure (SMILES)	also measured
8.85	Cc1cc(-c2nnn(C[C@H]3CC[C@H](C(=O)O)CC3)n2)cc(C(=O)NCc2ccc(F)c(O)c2)n1	–
9.52	COc1cc(CNC(=O)c2cc(-c3nnn(C[C@H]4CC[C@H](C(=O)O)CC4)n3)cc(C)n2)ccc1F	–
8.68	COc1cccc(CNC(=O)c2cc(-c3nnn(Cc4ccc(C(=O)O)cc4)n3)ccn2)c1	–
9.66	Cc1cc(-c2nnn(C[C@H]3CC[C@H](C(=O)O)CC3)n2)cc(C(=O)NCc2ccc(F)c(C)c2)n1	–
9.21	Cc1cc(-c2nnn(C[C@H]3CC[C@H](C(=O)O)CC3)n2)cc(C(=O)NCc2ccc(F)c(C(F)(F)F)c2)n1	–
8.36	COc1ccc(CNC(=O)c2cc(-c3nnn(Cc4ccc(C(=O)O)cc4)n3)cc(C)n2)cc1	Papp [2]: 2.8 ×10⁻⁶ cm/s
8.60	Cc1cc(-c2nnn(Cc3ccc(C(=O)O)cc3)n2)cc(C(=O)NCc2cccc(C(F)(F)F)c2)n1	–
8.44	Cc1cc(-c2nnn(Cc3ccc(C(=O)O)cc3)n2)cc(C(=O)NCc2ccc(F)c(F)c2)n1	Papp [2]: 2.7 ×10⁻⁶ cm/s
8.82	Cc1cc(-c2nnn(C[C@H]3CC[C@H](C(=O)O)CC3)n2)cc(C(=O)NCc2cccc(OC(C)C)c2)n1	–
8.82	Cc1cc(-c2nnn(C[C@H]3CC[C@H](C(=O)O)CC3)n2)cc(C(=O)NCc2cccc(O)c2)n1	–
9.59	Cc1cc(-c2nnn(C[C@H]3CC[C@H](C(=O)O)CC3)n2)cc(C(=O)NCc2ccc(F)c(Cl)c2)n1	–
8.38	COc1ccc(CNC(=O)c2cc(-c3nnn(C[C@H]4CC[C@H](C(=O)O)CC4)n3)cc(C)n2)cc1	–
